# Measurements reported in patent US20150258077A1, “SUBSTITUTED B[…] FOR TREATMENT OF DEMENTIA” (P2D Inc., priority 2012, published 2015).
# Tests used:
# [1] = test system: patients with dementia; details: Alzheimer's disease, frontotemporal dementia, vascular dementia; Dolder et al. review; cited from earlier work
# [2] = test system: 3×Tg-AD mice; assay: Short-term memory in single alternation T-maze, 3×Tg-AD mice; type: in vivo; details: 10 mg/kg in saline 1 hr prior to testing, vs saline controls, p<0.001
# Procedure: In this model, genes that cause Alzheimer's disease have been cloned from living Alzheimer's patients and then directly cloned into the genome of living mice to create Alzheimer mice (3×Tg-AD mice). […] (Oddo, S., et al., Triple-transgenic model of Alzheimer's disease with plaques and tangles: intracellular Abeta and synaptic dysfunction. Neuron, 2003; 39(3):409-21.)
# Short-term memory was assessed in a well-accepted memory model (single alternation T-maze). In these studies, animals were administered 10 mg/kg PD2005 in saline 1 hr prior to testing and controls were administered only saline.
# [3] = target: dopamine transporter (Homo sapiens, UniProt Q01959); details: result in words; cited from earlier work
# Sequence of dopamine transporter (Q01959 whole entry): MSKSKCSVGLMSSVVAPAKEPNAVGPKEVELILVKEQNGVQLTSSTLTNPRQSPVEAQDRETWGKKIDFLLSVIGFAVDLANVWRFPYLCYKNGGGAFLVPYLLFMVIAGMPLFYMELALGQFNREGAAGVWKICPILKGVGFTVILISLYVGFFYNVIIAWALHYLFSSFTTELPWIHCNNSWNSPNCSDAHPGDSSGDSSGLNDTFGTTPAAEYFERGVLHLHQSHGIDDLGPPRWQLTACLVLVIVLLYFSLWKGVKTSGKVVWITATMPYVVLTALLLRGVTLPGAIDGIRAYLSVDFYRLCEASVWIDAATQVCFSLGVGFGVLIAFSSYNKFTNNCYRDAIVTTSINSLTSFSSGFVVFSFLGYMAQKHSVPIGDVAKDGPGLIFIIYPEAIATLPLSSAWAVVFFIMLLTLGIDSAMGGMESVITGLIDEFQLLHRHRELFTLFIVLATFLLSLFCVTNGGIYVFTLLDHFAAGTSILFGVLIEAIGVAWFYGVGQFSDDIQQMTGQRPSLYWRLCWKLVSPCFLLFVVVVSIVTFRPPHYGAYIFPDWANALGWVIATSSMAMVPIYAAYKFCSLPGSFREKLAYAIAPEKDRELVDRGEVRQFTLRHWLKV
compound,measurement,setting,value
CC(N)Cc1ccccc1 (centres unmarked) [amphetamine],effectiveness in patients with dementia,[1],not effective
COC(=O)C(c1ccccc1)C1CCCCN1 (centres unmarked) [methylphenidate],effectiveness in patients with dementia,[1],not effective
"C=CCN1C2CCC1CC(OC(c1ccc(F)cc1)c1ccc(F)cc1)C2 (stereo not drawn) [PD2005, N-allyl-4′,4″-difluoro-3α-diphenyl-methoxytropane]",improvement in memory,[2]; first day of testing,140%
same,memory improvement,[2]; following day of testing,113%
CN1[C@@H]2CC[C@H]1C[C@@H](OC(c1ccccc1)c1ccccc1)C2 [benztropine],affinity for the dopamine transporter,[3],high affinity
